Several values for one entry are separate records, joined by “and”; a condition that tells them apart may be missing. Identical values can stand only once.
What was measured:
[1] = system: human promyelocytic leukemia cell; conditions: cited from earlier work
[2] = system: hydroperoxidase; conditions: antipromotion activity; cited from earlier work
[3] = Effect of Resveratrol on Body Weight of Female A/J Mice (diet, 6-week treatment); assay type: in vivo
Description: (§1) This experimental work assesses the bioavailability of resveratrol when administered orally to Female Mice Strain A, establishes the relationship betveen oral administration of resveratrol and the plasma concentration of the female mice, assesses the method of analysis for mouse plasma and establishes the detection limit of resveratrol in animal plasma. The mice were received from the Biological Testing Branch, National Cancer Institute, at 4-6 weeks of age, each having a body weight of approximately 16 g.
(§2) After a quarantine period of one week, seven (7) groups each consisting of 10 mice were given resveratrol mixed with Teklad 4% Mouse/Rat chow ad libitum for a 6-week treatment period. As indicated in the table which follows, the concentration of resveratrol ranged from 125 mg/kg of diet to 3000 mg/kg of diet, with one group, as the control group, receiving only the mouse chow.
(§3) Parameters monitored during the course of the study included sided-cage observations twice daily and body weight. Blood samples were taken at the end of the treatment period of 6 weeks and kept frozen at -20° C.±5 until the time of analysis. All animals were sacrificed by asphyxiation.

[4] = Resveratrol concentration in mouse plasma after oral administration in diet (HPLC); assay type: in vivo, mouse (Female Mice Strain A); conditions: for concentration at 1008 h: plasma, po, 6 weeks
Description: as §1
After a quarantine period of one week, seven (7) groups each consisting of 10 mice were given resveratrol mixed with Teklad 4% Mouse/Rat chow ad libitum for a 6-week treatment period.
as §3
Plasma resveratrol concentration was determined by a liquid-liquid extraction method and reverse phase HPLC at Pharmascience Inc., Bio-analytical Division, Quebec, Canada, as follows. After addition of internal standard and buffer to plasma samples, ethyl acetate was then added. The extracted organic phase was transferred to a clean tube and dried with a nitrogen evaporator. The residue was reconstituted with the mobile phase and then injected to HPLC with UV at 310 nm.

[5] = system: cyclooxygenase; conditions: antipromotion activity; cited from earlier work
[6] = Clinical signs, cage observations twice daily in mice fed resveratrol; assay type: in vivo, mouse (Female Mice Strain A); conditions: any dose groups tested, 125-3000 mg/kg diet, 6 weeks
Description: as §1, §2, §3

[7] = system: phase II drug-metabolizing enzymes; conditions: anti-initiation activity; cited from earlier work
[8] = antipromotion activity; cited from earlier work
[9] = anti-initiation activity; cited from earlier work
[10] = anti-initiation activity; cited from earlier work; remark: listed apart in the source

For Oc1ccc(C=Cc2cc(O)cc(O)c2)cc1 [resveratrol, 3,5,4'-trihydroxy stilbene], the “human promyelocytic leukemia cell differentiation” value [1] is given as “induced human promyelocytic leukemia cell differentiation”, the inhibition of hydroperoxidase [2] is given as “inhibited cyclooxygenase and hydroperoxidase” and the mean body weight ([3]; 125 ppm, day 5, N=10) is given as 16.4 Grams. For the same compound, the mean body weight ([3]; 125 ppm, day 8, N=10) was 16.6 Grams, the mean body weight ([3]; 125 ppm, day 12, N=10) was 17.3 Grams and the mean body weight ([3]; 125 ppm, day 15, N=10) was 18.0 Grams. It also gave a mean body weight ([3]; 125 ppm, day 19, N=10) of 18.4 Grams, a mean body weight ([3]; 125 ppm, day 22, N=10) of 18.7 Grams and a mean body weight ([3]; 125 ppm, day 26, N=10) of 19.0 Grams. It also gave a mean body weight ([3]; 125 ppm, day 29, N=10) of 19.0 Grams, a mean body weight ([3]; 125 ppm, day 33, N=10) of 19.4 Grams and a mean body weight ([3]; 125 ppm, day 36, N=10) of 19.3 Grams. It also gave a mean body weight ([3]; 125 ppm, day 40, N=10) of 19.2 Grams, a mean body weight ([3]; 125 ppm, day 42, N=10) of 19.7 Grams and a mean body weight ([3]; 250 ppm, day 5, N=10) of 16.2 Grams. For the same compound, the mean body weight ([3]; 250 ppm, day 8, N=10) was 16.8 Grams, the mean body weight ([3]; 250 ppm, day 12, N=10) was 17.7 Grams and the mean body weight ([3]; 250 ppm, day 15, N=10) was 18.4 Grams. For the same compound, the mean body weight ([3]; 250 ppm, day 19, N=10) was 18.9 Grams, the mean body weight ([3]; 250 ppm, day 22, N=10) was 19.0 Grams and the mean body weight ([3]; 250 ppm, day 26, N=10) was 19.3 Grams. It also gave a mean body weight ([3]; 250 ppm, day 29, N=10) of 19.4 Grams, a mean body weight ([3]; 250 ppm, day 33, N=10) of 19.7 Grams and a mean body weight ([3]; 250 ppm, day 36, N=10) of 19.6 Grams. It also gave a mean body weight ([3]; 250 ppm, day 40, N=10) of 19.9 Grams, a mean body weight ([3]; 250 ppm, day 42, N=10) of 19.9 Grams and a mean body weight ([3]; 500 ppm, day 5, N=10) of 16.6 Grams. It also gave a mean body weight ([3]; 500 ppm, day 8, N=10) of 17.5 Grams, a mean body weight ([3]; 500 ppm, day 12, N=10) of 17.8 Grams and a mean body weight ([3]; 500 ppm, day 15, N=10) of 18.3 Grams. It also gave a mean body weight ([3]; 500 ppm, day 19, N=10) of 18.7 Grams, a mean body weight ([3]; 500 ppm, day 22, N=10) of 19.2 Grams and a mean body weight ([3]; 500 ppm, day 26, N=10) of 19.4 Grams. It also gave a mean body weight ([3]; 500 ppm, day 29, N=10) of 19.8 Grams, a mean body weight ([3]; 500 ppm, day 33, N=10) of 19.8 Grams and a mean body weight ([3]; 500 ppm, day 36, N=10) of 20.1 Grams. It also gave a mean body weight ([3]; 500 ppm, day 40, N=10) of 20.0 Grams, a mean body weight ([3]; 500 ppm, day 42, N=10) of 20.2 Grams and a mean body weight ([3]; 1000 ppm, day 5, N=10) of 16.1 Grams. It also gave a mean body weight ([3]; 1000 ppm, day 8, N=10) of 16.9 Grams, a mean body weight ([3]; 1000 ppm, day 12, N=10) of 17.4 Grams and a mean body weight ([3]; 1000 ppm, day 15, N=10) of 18.2 Grams. For the same compound, the mean body weight ([3]; 1000 ppm, day 19, N=10) was 18.1 Grams, the mean body weight ([3]; 1000 ppm, day 22, N=10) was 18.8 Grams and the mean body weight ([3]; 1000 ppm, day 26, N=10) was 19.0 Grams. For the same compound, the mean body weight ([3]; 1000 ppm, day 29, N=10) was 19.3 Grams, the mean body weight ([3]; 1000 ppm, day 33, N=10) was 19.5 Grams and the mean body weight ([3]; 1000 ppm, day 36, N=10) was 19.8 Grams. The mean body weight ([3]; 1000 ppm, day 40, N=10) was 19.5 Grams, the mean body weight ([3]; 1000 ppm, day 42, N=10) was 19.6 Grams and the mean body weight ([3]; 2000 ppm, day 5, N=10) was 16.3 Grams. The individual body weight ([3]; 2000 ppm, day 5, animals 51-60) was 17.8 Grams and 15.7 Grams and 16.1 Grams and 17.0 Grams and 13.7 Grams, the mean body weight ([3]; 2000 ppm, day 8, N=10) was 16.6 Grams and the individual body weight ([3]; 2000 ppm, day 8, animals 51-60) was 19.1 Grams and 15.8 Grams and 14.8 Grams and 16.5 Grams and 13.6 Grams. The mean body weight ([3]; 2000 ppm, day 12, N=10) was 17.7 Grams, the individual body weight ([3]; 2000 ppm, day 12, animals 51-60) was 19.5 Grams and 16.9 Grams and 17.0 Grams and 19.2 Grams and 18.1 Grams and 15.3 Grams and the mean body weight ([3]; 2000 ppm, day 15, N=10) was 17.7 Grams. For the same compound, the individual body weight ([3]; 2000 ppm, day 15, animals 51-60) was 19.6 Grams and 16.9 Grams and 16.7 Grams and 19.0 Grams and 17.7 Grams and 14.5 Grams, the mean body weight ([3]; 2000 ppm, day 19, N=10) was 18.8 Grams and the individual body weight ([3]; 2000 ppm, day 19, animals 51-60) was 20.1 Grams and 18.4 Grams and 19.5 Grams and 15.7 Grams. The mean body weight ([3]; 2000 ppm, day 22, N=10) was 19.1 Grams, the individual body weight ([3]; 2000 ppm, day 22, animals 51-60) was 20.3 Grams and 18.8 Grams and 18.4 Grams and 20.9 Grams and 20.0 Grams and 16.3 Grams and the mean body weight ([3]; 2000 ppm, day 26, N=10) was 19.2 Grams. The individual body weight ([3]; 2000 ppm, day 26, animals 51-60) was 20.2 Grams and 19.0 Grams and 18.7 Grams and 20.7 Grams and 19.9 Grams and 16.0 Grams, the mean body weight ([3]; 2000 ppm, day 29, N=10) was 19.5 Grams and the individual body weight ([3]; 2000 ppm, day 29, animals 51-60) was 20.7 Grams and 19.5 Grams and 18.8 Grams and 21.4 Grams and 20.0 Grams and 16.1 Grams. For the same compound, the mean body weight ([3]; 2000 ppm, day 33, N=10) was 19.8 Grams, the individual body weight ([3]; 2000 ppm, day 33, animals 51-60) was 21.0 Grams and 19.8 Grams and 19.5 Grams and 21.2 Grams and 20.7 Grams and 16.6 Grams and the mean body weight ([3]; 2000 ppm, day 36, N=10) was 19.6 Grams. For the same compound, the individual body weight ([3]; 2000 ppm, day 36, animals 51-60) was 21.3 Grams and 18.4 Grams and 18.5 Grams and 20.4 Grams and 20.0 Grams and 16.7 Grams, the mean body weight ([3]; 2000 ppm, day 40, N=10) was 19.7 Grams and the individual body weight ([3]; 2000 ppm, day 40, animals 51-60) was 20.3 Grams and 19.9 Grams and 18.9 Grams and 21.0 Grams and 20.9 Grams and 17.2 Grams. For the same compound, the mean body weight ([3]; 2000 ppm, day 42, N=10) was 20.3 Grams, the individual body weight ([3]; 2000 ppm, day 42, animals 51-60) was 19.5 Grams and 21.7 Grams and 19.2 Grams and 21.9 Grams and 21.3 Grams and 18.0 Grams and the mean body weight ([3]; group 7, 300 (ppm), day 5, N=10) was 16.3 Grams. The individual body weight ([3]; group 7, 300 (ppm), day 5, animals 61-70) was 16.0 Grams and 14.9 Grams and 15.2 Grams, the mean body weight ([3]; group 7, 300 (ppm), day 8, N=10) was 17.1 Grams and the individual body weight ([3]; group 7, 300 (ppm), day 8, animals 61-70) was 16.8 Grams and 16.4 Grams and 16.1 Grams. For the same compound, the mean body weight ([3]; group 7, 300 (ppm), day 12, N=10) was 17.6 Grams, the individual body weight ([3]; group 7, 300 (ppm), day 12, animals 61-70) was 17.6 Grams and 17.5 Grams and 17.4 Grams and the mean body weight ([3]; group 7, 300 (ppm), day 15, N=10) was 17.1 Grams. For the same compound, the individual body weight ([3]; group 7, 300 (ppm), day 15, animals 61-70) was 16.9 Grams and 17.2 Grams, the mean body weight ([3]; group 7, 300 (ppm), day 19, N=10) was 18.7 Grams and the individual body weight ([3]; group 7, 300 (ppm), day 19, animals 61-70) was 18.8 Grams and 18.2 Grams. For the same compound, the mean body weight ([3]; group 7, 300 (ppm), day 22, N=10) was 19.1 Grams, the individual body weight ([3]; group 7, 300 (ppm), day 22, animals 61-70) was 18.5 Grams and 18.6 Grams and the mean body weight ([3]; group 7, 300 (ppm), day 26, N=10) was 19.1 Grams. The individual body weight ([3]; group 7, 300 (ppm), day 26, animals 61-70) was 18.6 Grams and 18.5 Grams, the mean body weight ([3]; group 7, 300 (ppm), day 29, N=10) was 18.9 Grams and the individual body weight ([3]; group 7, 300 (ppm), day 29, animals 61-70) was 18.8 Grams and 18.3 Grams. For the same compound, the mean body weight ([3]; group 7, 300 (ppm), day 33, N=10) was 19.5 Grams, the individual body weight ([3]; group 7, 300 (ppm), day 33, animals 61-70) was 18.7 Grams and 18.8 Grams and the mean body weight ([3]; group 7, 300 (ppm), day 36, N=10) was 19.9 Grams. For the same compound, the individual body weight ([3]; group 7, 300 (ppm), day 36, animals 61-70) was 19.4 Grams and 18.6 Grams, the mean body weight ([3]; group 7, 300 (ppm), day 40, N=10) was 19.6 Grams and the individual body weight ([3]; group 7, 300 (ppm), day 40, animals 61-70) was 19.3 Grams and 19.1 Grams. For the same compound, the mean body weight ([3]; group 7, 300 (ppm), day 42, N=10) was 20.1 Grams, the individual body weight ([3]; group 7, 300 (ppm), day 42, animals 61-70) was 19.1 Grams and 19.5 Grams and the oral absorption ([4]; mixed with chow) was “easily absorbed by the oral route”. The “relationship between plasma resveratrol levels and amount administered” value ([4]; oral in diet, FIG. 1) was “linear relationship”, the concentration at 1008 h ([4]; 125 mg/kg diet, n=5) was 10.8 ng/mL and the concentration at 1008 h ([4]; 250 mg/kg diet, n=4) was 87.9 ng/mL. For the same compound, the concentration at 1008 h ([4]; 500 mg/kg diet, n=5) was 56.8 ng/mL, the concentration at 1008 h ([4]; 1000 mg/kg diet, n=5) was 99 ng/mL and the concentration at 1008 h ([4]; 2000 mg/kg diet, n=5) was 178 ng/mL. For the same compound, the concentration at 1008 h ([4]; 3000 mg/kg diet, n=5) was 447 ng/mL, the inhibition of cyclooxygenase [5] was “inhibited cyclooxygenase” and the compound-related clinical signs [6] was “no compound-related clinical signs”. For the same compound, the “induction of phase II drug-metabolizing enzymes” value [7] was “induced phase II drug-metabolizing enzymes”, the anti-inflammatory effects [8] was “mediated anti-inflammatory effects” and the antimutagen activity [9] was “antimutagen”. The antioxidant activity [10] was “acted as an antioxidant”.
